In article PMC8293625, “HLA class-I-peptide stability mediates CD8^+ T cell immunodominance hierarchies and facilitates HLA-associated immune control of HIV” (Cell Reports, 2021):
Read-outs that look alike come from different tables or passages of the source.

Experiments:
[1] = molecular target: HLA-B*8101 (Homo sapiens, UniProt P01889, A269T/D138N/E176V/R180L/T167S/W171L); assay: Cell-based HLA class I-peptide concentration-based stability assay (TAP-deficient mono-allelic 721.221 cells); conditions: relative anti-HLA MFI; for Relative HLA MFI (10 uM): section B*81, peptide 10 uM; for Relative HLA MFI (100 uM): section B*81, peptide 100 uM
Chain of HLA-B*8101 (P01889 25-362 D138N/T167S/W171L/E176V/R180L/A269T limits assumed): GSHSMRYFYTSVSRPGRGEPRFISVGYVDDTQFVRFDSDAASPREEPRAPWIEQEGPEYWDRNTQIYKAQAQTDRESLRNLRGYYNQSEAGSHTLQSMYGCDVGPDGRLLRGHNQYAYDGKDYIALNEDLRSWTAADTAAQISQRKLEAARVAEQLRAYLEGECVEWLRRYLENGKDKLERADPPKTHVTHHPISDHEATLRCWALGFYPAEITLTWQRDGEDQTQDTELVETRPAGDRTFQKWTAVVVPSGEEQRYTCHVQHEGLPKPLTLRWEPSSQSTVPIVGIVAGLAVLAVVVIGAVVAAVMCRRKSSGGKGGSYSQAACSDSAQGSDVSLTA

[2] = molecular target: Soluble HLA-A*0301 monomer (heavy chain and β2-microglobulin); assay: differential scanning fluorimetry (thermal denaturation)
[3] = molecular target: HLA-A*0301 on TAP-deficient mono-allelic 721.221 cells (human | human (endogenous in 721.221)); assay: flow cytometry on cells
[4] = molecular target: T1, HLA-B*5701 (Homo sapiens, UniProt P01889, D201E/D98Y/E176V/E187L/E204Q/E69M/E70A/G107R/I90N/K202T/L105A/L119I/N104I/N87E/Q89R/Q94S/R106L/R155S/R180L/R86G/S101N/S121V/S35A/S48A/T118I/V36M/Y140S/Y91M); assay: Cell-based HLA class I-peptide concentration-based stability assay (TAP-deficient mono-allelic 721.221 cells); conditions: for Relative HLA MFI (10 uM) / Relative HLA MFI (100 uM): section B*57, TAP-deficient mono-allelic 721.221 cells, relative anti-HLA MFI; for Relative HLA MFI (10 uM): peptide 10 uM; for Relative HLA MFI (100 uM): peptide 100 uM; for anti-HLA MFI (surface HLA-B*5701): representative (Fig S2B)
Protocol: (§5) Controls without peptide, but the corresponding concentration of DMSO, were performed in parallel.

[5] = molecular target: T1, HLA-B*5701; assay: Thermal denaturation (differential scanning fluorimetry) of soluble HLA class I-peptide monomers; type: binding; conditions: DSF, 2 μM pMHC, SYPRO orange; representative, performed twice as technical triplicates (Fig S4B)
Protocol: (§1) To confirm these observations and further validate the cell-based stability assay, we used an orthogonal approach to evaluate the relationship between HLA class-I-peptide stability and ID by assessing thermal denaturation of soluble HLA class-I-peptide complexes ([Hellman et al., 2016]). In this assay, soluble HLA class-I monomers with bound peptide are incubated in the presence of an environmentally sensitive fluorescent molecule whose fluorescence is enhanced when bound to exposed hydrophobic surfaces during protein unfolding. As a result, the thermal stability (Tm, defined as the temperature at which 50% of the protein is unfolded) of an HLA class-I-peptide complex can be determined by fluorometric measurements during incremental temperature increases, which serve as a proxy for the stabilizing capacity of a bound epitope ([Hellman et al., 2016]).
(§2) This relative difference in Tm between ID and SubD epitopes was also observed for HLA-A^∗02 and HLA-B^∗57 (Figure S4) and collectively was statistically significant (Figure 3C).
(§3) Expression, refold and purification of the soluble constructs of the pMHCs were performed as previously described ([Pierce et al., 2014]). Briefly, the HLA-A^∗02, HLA-A^∗03 and HLA-B^∗57 heavy chains, and β2-microglobulin were expressed in Escherichia coli and purified as inclusion bodies (IBs). The IBs were solubilized in 8M Urea. Target peptides were provided by the MGH Peptide Core. […]
(§4) Differential scanning fluorimetry was performed using a Bio-RAD CFX96 real time PCR system as previously described. Briefly, the excitation and emission wavelengths were set to 587 and 607 nm respectively, and the fluorescence intensity was measured after every 1°C rise in temperature starting from 20°C and going up to 95°C. […] Apparent Tm values were calculated by identifying the point at which the melting transition was 50% complete.

[6] = system: HLA class-I alleles A*0101, A*0201, A*0301, A*2402, B*0702, B*0801, B*1402, B*1501, B*2705, B*3501, B*3901, B*4001, B*4402, B*5201, B*5701, B*5801, B*8101 …; type: cell-based, human; conditions: relative anti-HLA MFI; for Relative HLA MFI (10 uM): peptide 10 uM; for Relative HLA MFI (100 uM): peptide 100 uM
[7] = molecular target: T2, HLA-A*0301 (Homo sapiens, UniProt P04439); assay: Thermal denaturation (differential scanning fluorimetry) of soluble HLA class I-peptide monomers; type: binding; conditions: DSF, 2 μM pMHC, 10mM HEPES pH 7.4, 150 mM NaCl, SYPRO orange, 20–95°C in 1°C steps; representative (Fig 3B)
Protocol: as §1, §2, §3, §4

[8] = molecular target: T2, HLA-A*0301; assay: Cell-based HLA class I-peptide concentration-based stability assay (TAP-deficient mono-allelic 721.221 cells); conditions: for Relative HLA MFI (10 uM) / Relative HLA MFI (100 uM): HLA A*03 mono-allelic TAP-deficient 721.221 cells, relative anti-HLA MFI; for Relative HLA MFI (10 uM): peptide 10 uM; for Relative HLA MFI (100 uM): peptide 100 uM
Protocol: as §5

[9] = section B*58, TAP-deficient mono-allelic 721.221 cells
[10] = HLA B*27 mono-allelic TAP-deficient 721.221 cells

FPRIWLHGL [FL9]
Relative HLA MFI (10 uM) [1]: 0.69 | Relative HLA MFI (100 uM) [1]: 1

HIV A*03-restricted RK9 epitope ([…], Gag p17 20-28) (peptide)
Tm of the HLA-peptide complex [2]: 53 °C | percent stable HLA-peptide complexes on the surface after 4 h at 37°C with BFA [3]: 40%

HTQGYFPDW [HW9]
Relative HLA MFI (10 uM) [4]: 0.3192 | Relative HLA MFI (100 uM) [4]: 0.6623 | thermal stability (Tm) of HLA-B*5701-peptide complex [5]: 57 °C | Relative HLA MFI (10 uM) [6, 9]: 0.6285 | Relative HLA MFI (100 uM) [6, 9]: 1

KAFSPEVIPMF [KF11]
anti-HLA MFI (surface HLA-B*5701) ([4]; absence of β2m): 426 | anti-HLA MFI (surface HLA-B*5701) ([4]; presence of β2m (3 µg/mL)): 565 | Relative HLA MFI (10 uM) [4]: 0.2215 | Relative HLA MFI (100 uM) [4]: 0.5689 | thermal stability (Tm) of HLA-B*5701-peptide complex [5]: 57 °C

LRPMTYKAA [LA9]
Relative HLA MFI (10 uM) [1]: 0.0372 | Relative HLA MFI (100 uM) [1]: 0.09141 | Relative HLA MFI (10 uM) [6, 10]: 0.09012 | Relative HLA MFI (100 uM) [6, 10]: 0.09773

RLAFHHVAR [RR9]
thermal stability (Tm) of HLA-A*0301-peptide complex [7]: 44 °C | Relative HLA MFI (10 uM) [8]: 0.003513 | Relative HLA MFI (100 uM) [8]: 0.03204 | anti-HLA MFI (HLA-A*0301 surface stabilization) ([8]; HLA-A*0301 + sgRNA TAP cells (Fig 3A), peptide concentration not given): 123

RLRDLLLIVTR [RR11]
Relative HLA MFI (10 uM) [8]: 0 | Relative HLA MFI (100 uM) [8]: 0.02843

TPVNIIGRNML [TL11]
Relative HLA MFI (10 uM) [1]: 0.7114 | Relative HLA MFI (100 uM) [1]: 0.9995
